According to PMC10102643, “A mass balance study of [^14C]SHR6390 (dalpiciclib), a selective and potent CDK4/6 inhibitor in humans” (Frontiers in Pharmacology, 2023):

Assay: Quantitative metabolite radioprofiling in pooled plasma, urine and stool (UHPLC-FC / HRMS)
Format: in vivo, human
Conditions: pooled 0–168 h stool
Description: The plasma sample (15 mL) after pooled was added 15 mL methanol and 15 mL acetonitrile and centrifugation (3,500 rpm, 10 min, 4°C). Extract the centrifuged solid with 7.5 mL water and 22.5 mL methanol acetonitrile (50:50, v: v). The first two extracted supernatants were combined and concentrated. The concentration of the substance is at 200 μL Acetonitrile water (20:80, v: v) was dissolved again and centrifuged again (3,600 rpm, 10 min, 4°C). Part of the supernatant was injected into the UHPLC-FC (Fraction collector) system (Thermo). The eluent from the UHPLC was collected into the Deepwell LumaPlate 96 (PerkinElmer) at the rate of 10 s per well within minutes. The total collection time is 35 min. The plates were dried by Integrated SpeedVac (Thermo), and the radiation value of each well were detected by a microplate reader (Sense Beta Hidex, Finland). Data were reconstructed to radio-chromatogram by Laura software (Lablogic, United Kingdom) to give the radio profiling of plasma.
The combined samples were centrifuged, concentrated by N2 and dissolved in a 200 μL mixture of 40 mL acetonitrile and 160 mL-water, and 120 μL was injected into the UHPLC-FC system (Thermo). Other operation steps are the same as those of plasma.
Add 6 mL methanol acetonitrile (50:50, v: v) to the combined fecal homogenate (2 g) sample. The mixture was then whirled (1 min) and centrifuged6 (3,500 rpm, 10 min, 4°C). […]

Question: With `CC(=O)c1c(C)c2cnc(Nc3ccc(C(CCN)CCO)cn3)nc2n(C2CCCC2)c1=O` (stereo not shown) [M464-2] as the compound, how does the “abundance in stool (in words)” value read?
Answer: minor metabolites
